The target in one experiment is human Gal-3 (hGal-3) (Homo sapiens (Human), UniProt P17931). The experiment is described as follows: Competitive binding assay: biotinylated hGal-3 binding to microplate-adsorbed asialofetuin (ASF). To be noted: Activity on hGal-3; binding of biotinylated hGal-3 to ASF-coated plates; mean values. In short, it runs like this: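 Serially diluted compounds competed with biotinylated human Gal-3 for binding to plate-adsorbed asialofetuin over 3 h at 4 °C. Bound Gal-3 was detected with streptavidin-peroxidase (80 ng/mL, 1 h, 4 °C) and ABTS substrate. IC50 values are means of several measurements.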
human Gal-3 (hGal-3), sequence (P17931 whole entry): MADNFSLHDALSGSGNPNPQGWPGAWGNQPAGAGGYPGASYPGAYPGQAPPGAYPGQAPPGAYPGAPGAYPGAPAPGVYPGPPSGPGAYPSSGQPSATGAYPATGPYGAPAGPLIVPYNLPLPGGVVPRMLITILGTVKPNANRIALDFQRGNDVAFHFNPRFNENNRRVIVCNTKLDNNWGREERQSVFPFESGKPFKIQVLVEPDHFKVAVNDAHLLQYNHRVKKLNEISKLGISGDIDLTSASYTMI

In a further experiment the target is human Gal-1 (hGal-1). The experiment is described as follows: Competitive binding assay: biotinylated hGal-1 binding to microplate-adsorbed asialofetuin (ASF). To be noted: Activity on hGal-1; binding of biotinylated hGal-1 to ASF-coated plates; mean values. A digest of the protocol: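 Biotinylated hGal-1 (300–1000 ng/mL; optionally a cysteine-free all-serine variant) incubated 3 h at 4 °C with compound on asialofetuin-coated plates, then streptavidin-peroxidase 1 h at 4 °C. ABTS readout at OD 410 nm after 30–45 min; IC50 given as mean of several runs.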
human Gal-1 (hGal-1), sequence (P09382 2-135 limits assumed): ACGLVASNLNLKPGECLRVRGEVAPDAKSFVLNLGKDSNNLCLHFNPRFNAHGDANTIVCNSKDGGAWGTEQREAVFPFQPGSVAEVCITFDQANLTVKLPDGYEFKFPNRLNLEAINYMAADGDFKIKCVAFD

Molecules are shown by their SMILES.

As to `Cc1ccc(-c2cn([C@H]3[C@@H](O)[C@@H](CO)O[C@@H](C(=O)N(c4cc(Cl)cc(C#N)c4)[C@H]4CCCC[C@@H]4O)[C@@H]3OCC(=O)O)nn2)c(F)c1F` [Example 172, 2-(((2R,3R,4S,5R,6R)-2-((3-chloro-5-cyanophenyl)((1S,2S)-2-hydroxycyclohexyl)carbamoyl)-4-(4-(2,3-difluoro-4-methylphenyl)-1H-1,2,3-triazol-1-yl)-5-hydroxy-6-(hydroxymethyl)tetrahydro-2H-pyran-3-yl)oxy)acetic acid], the results for the IC50 on human Gal-3 (hGal-3) and on human Gal-1 (hGal-1) were 11 nM and 421 nM, respectively.
For `Cc1ccc(-c2cn([C@H]3[C@@H](O)[C@@H](CO)O[C@@H](C(=O)N(c4cc(Cl)cc(C#N)c4)[C@H]4CCCC[C@@H]4O)[C@@H]3OCC(=O)N3CCOCC3)nn2)c(F)c1F` [Example 173, (2R,3R,4S,5R,6R)-N-(3-chloro-5-cyanophenyl)-4-(4-(2,3-difluoro-4-methylphenyl)-1H-1,2,3-triazol-1-yl)-5-hydroxy-N-((1S,2S)-2-hydroxycyclohexyl)-6-(hydroxymethyl)-3-(2-morpholino-2-oxoethoxy)tetrahydro-2H-pyran-2-carboxamide], the IC50 on human Gal-3 (hGal-3) stood at 9 nM; at human Gal-1 (hGal-1), 509 nM.
As to `COc1cc(F)c(F)cc1-c1cn([C@H]2[C@@H](O)[C@@H](CO)O[C@@H](C(=O)N(c3cc(Cl)cc(C#N)c3)[C@H]3CCCC[C@@H]3O)[C@@H]2OC)nn1` [Example 174, (2R,3R,4S,5R,6R)-N-(3-chloro-5-cyanophenyl)-4-(4-(4,5-difluoro-2-methoxyphenyl)-1H-1,2,3-triazol-1-yl)-5-hydroxy-N-((1S,2S)-2-hydroxycyclohexyl)-6-(hydroxymethyl)-3-methoxytetrahydro-2H-pyran-2-carboxamide], the figures for the IC50 at human Gal-3 (hGal-3) and at human Gal-1 (hGal-1) were 40 nM and 750 nM, respectively.
Turning to `CO[C@@H]1[C@@H](n2cc(-c3ccc(Br)c(F)c3F)nn2)[C@@H](O)[C@@H](CO)O[C@H]1C(=O)N(c1cc(Cl)cc(C#N)c1)[C@H]1CCCC[C@@H]1O` [Example 175, (2R,3R,4S,5R,6R)-4-(4-(4-bromo-2,3-difluorophenyl)-1H-1,2,3-triazol-1-yl)-N-(3-chloro-5-cyanophenyl)-5-hydroxy-N-((1S,2S)-2-hydroxycyclohexyl)-6-(hydroxymethyl)-3-methoxytetrahydro-2H-pyran-2-carboxamide], the IC50 at human Gal-3 (hGal-3) is 13 nM; at human Gal-1 (hGal-1) it was 386 nM.
Take `CO[C@@H]1[C@@H](n2cc(-c3ccc(Br)c(F)c3F)nn2)[C@@H](O)[C@@H](CO)O[C@H]1C(=O)N(c1cc(F)cc(C#N)c1)[C@H]1CCCC[C@@H]1O` [Example 176, (2R,3R,4S,5R,6R)-4-(4-(4-bromo-2,3-difluorophenyl)-1H-1,2,3-triazol-1-yl)-N-(3-cyano-5-fluorophenyl)-5-hydroxy-N-((1S,2S)-2-hydroxycyclohexyl)-6-(hydroxymethyl)-3-methoxytetrahydro-2H-pyran-2-carboxamide]: the concentration for half-maximal inhibition (IC50) on human Gal-3 (hGal-3) came to 15 nM; at human Gal-1 (hGal-1), 682 nM.
Taken in the same sequence, the figures for `CO[C@@H]1[C@@H](n2cc(-c3ccc(Br)c(F)c3F)nn2)[C@@H](O)[C@@H](CO)O[C@H]1C(=O)N(c1cc(Cl)cc(Cl)c1)[C@H]1CCCC[C@@H]1O` [Example 177, (2R,3R,4S,5R,6R)-4-(4-(4-bromo-2,3-difluorophenyl)-1H-1,2,3-triazol-1-yl)-N-(3,5-dichlorophenyl)-5-hydroxy-N-((1S,2S)-2-hydroxycyclohexyl)-6-(hydroxymethyl)-3-methoxytetrahydro-2H-pyran-2-carboxamide] were 13 nM and 852 nM.
As for `CO[C@@H]1[C@@H](n2cc(-c3ccc(Cl)c(F)c3F)nn2)[C@@H](O)[C@@H](CO)O[C@H]1C(=O)N(c1cc(Cl)cc(C#N)c1)[C@H]1CCCC[C@@H]1O` [Example 178, (2R,3R,4S,5R,6R)-4-(4-(4-chloro-2,3-difluorophenyl)-1H-1,2,3-triazol-1-yl)-N-(3-chloro-5-cyanophenyl)-5-hydroxy-N-((1S,2S)-2-hydroxycyclohexyl)-6-(hydroxymethyl)-3-methoxytetrahydro-2H-pyran-2-carboxamide], the IC50 on human Gal-3 (hGal-3) was found to be 26 nM; at human Gal-1 (hGal-1) it was 123 nM.
On to `CO[C@@H]1[C@@H](n2cc(-c3ccc(Cl)c(F)c3)nn2)[C@@H](O)[C@@H](CO)O[C@H]1C(=O)N(c1cc(Cl)cc(Cl)c1)[C@H]1CCCC[C@@H]1O` [Example 179, (2R,3R,4S,5R,6R)-4-(4-(4-chloro-3-fluorophenyl)-1H-1,2,3-triazol-1-yl)-N-(3,5-dichlorophenyl)-5-hydroxy-N-((1S,2S)-2-hydroxycyclohexyl)-6-(hydroxymethyl)-3-methoxytetrahydro-2H-pyran-2-carboxamide], for which the IC50 at human Gal-3 (hGal-3) came to 10 nM; at human Gal-1 (hGal-1), 591 nM.
`CO[C@@H]1[C@@H](n2cc(-c3ccc(C#N)c(F)c3)nn2)[C@@H](O)[C@@H](CO)O[C@H]1C(=O)N(c1cc(Cl)cc(C#N)c1)[C@H]1CCCC[C@@H]1O` [Example 181, (2R,3R,4S,5R,6R)-N-(3-chloro-5-cyanophenyl)-4-(4-(4-cyano-3-fluorophenyl)-1H-1,2,3-triazol-1-yl)-5-hydroxy-N-((1S,2S)-2-hydroxycyclohexyl)-6-(hydroxymethyl)-3-methoxytetrahydro-2H-pyran-2-carboxamide]: the IC50 on human Gal-3 (hGal-3) was determined as 29 nM; on human Gal-1 (hGal-1), 618 nM.
For the molecule `CO[C@@H]1[C@@H](n2cc(-c3ccc(Cl)c(OC(F)(F)F)c3)nn2)[C@@H](O)[C@@H](CO)O[C@H]1C(=O)N(c1cc(Cl)cc(C#N)c1)[C@H]1CCCC[C@@H]1O` [Example 185, (2R,3R,4S,5R,6R)-4-(4-(4-chloro-3-(trifluoromethoxy)phenyl)-1H-1,2,3-triazol-1-yl)-N-(3-chloro-5-cyanophenyl)-5-hydroxy-N-((1S,2S)-2-hydroxycyclohexyl)-6-(hydroxymethyl)-3-methoxytetrahydro-2H-pyran-2-carboxamide], the results for the concentration for half-maximal inhibition (IC50) on human Gal-3 (hGal-3) and at human Gal-1 (hGal-1) were 232 nM and 1370 nM, respectively.
In the case of `CO[C@@H]1[C@@H](n2cc(-c3ccc(Cl)c(Cl)c3)nn2)[C@@H](O)[C@@H](CO)O[C@H]1C(=O)N(c1cc(Cl)cc(C#N)c1)[C@H]1CCCC[C@@H]1O` [Example 186, (2R,3R,4S,5R,6R)-N-(3-chloro-5-cyanophenyl)-4-(4-(3,4-dichlorophenyl)-1H-1,2,3-triazol-1-yl)-5-hydroxy-N-((1S,2S)-2-hydroxycyclohexyl)-6-(hydroxymethyl)-3-methoxytetrahydro-2H-pyran-2-carboxamide], the IC50 at human Gal-3 (hGal-3) was 17 nM; on human Gal-1 (hGal-1), 210 nM.
As for `CO[C@@H]1[C@@H](n2cc(-c3ccc(Cl)c(Cl)c3)nn2)[C@@H](O)[C@@H](CO)O[C@H]1C(=O)N(c1cc(F)cc(C#N)c1)[C@H]1CCCC[C@@H]1O` [Example 187, (2R,3R,4S,5R,6R)-N-(3-cyano-5-fluorophenyl)-4-(4-(3,4-dichlorophenyl)-1H-1,2,3-triazol-1-yl)-5-hydroxy-N-((1S,2S)-2-hydroxycyclohexyl)-6-(hydroxymethyl)-3-methoxytetrahydro-2H-pyran-2-carboxamide], the IC50 on human Gal-3 (hGal-3) is 37 nM; at human Gal-1 (hGal-1) it was 359 nM.
For the molecule `CO[C@@H]1[C@@H](n2cc(-c3ccc(Cl)c(Cl)c3)nn2)[C@@H](O)[C@@H](CO)O[C@H]1C(=O)N(c1cc(Cl)cc(Cl)c1)[C@H]1CCCC[C@@H]1O` [Example 189, (2R,3R,4S,5R,6R)-N-(3,5-dichlorophenyl)-4-(4-(3,4-dichlorophenyl)-1H-1,2,3-triazol-1-yl)-5-hydroxy-N-((1S,2S)-2-hydroxycyclohexyl)-6-(hydroxymethyl)-3-methoxytetrahydro-2H-pyran-2-carboxamide], the figures for the IC50 at human Gal-3 (hGal-3) and on human Gal-1 (hGal-1) were 11 nM and 257 nM, respectively.
For the molecule `CO[C@@H]1[C@@H](n2cc(-c3cc(C)cc(F)c3)nn2)[C@@H](O)[C@@H](CO)O[C@H]1C(=O)N(c1cc(Cl)cc(C#N)c1)[C@H]1CCCC[C@@H]1O` [Example 190, (2R,3R,4S,5R,6R)-N-(3-chloro-5-cyanophenyl)-4-(4-(3-fluoro-5-methylphenyl)-1H-1,2,3-triazol-1-yl)-5-hydroxy-N-((1S,2S)-2-hydroxycyclohexyl)-6-(hydroxymethyl)-3-methoxytetrahydro-2H-pyran-2-carboxamide], the IC50 on human Gal-3 (hGal-3) was 17 nM; at human Gal-1 (hGal-1) it was 239 nM.
For `CO[C@@H]1[C@@H](n2cc(-c3ccc4nc(C)sc4c3)nn2)[C@@H](O)[C@@H](CO)O[C@H]1C(=O)N(c1cc(Cl)cc(Cl)c1)[C@H]1CCCC[C@@H]1O` [Example 191, (2R,3R,4S,5R,6R)-N-(3,5-dichlorophenyl)-5-hydroxy-N-((1S,2S)-2-hydroxycyclohexyl)-6-(hydroxymethyl)-3-methoxy-4-(4-(2-methylbenzo[d]thiazol-6-yl)-1H-1,2,3-triazol-1-yl)tetrahydro-2H-pyran-2-carboxamide], the IC50 was determined as 41 nM at human Gal-3 (hGal-3) and 1140 nM on human Gal-1 (hGal-1).
In the case of `CO[C@@H]1[C@@H](n2cc(-c3ccc(F)c4ccccc34)nn2)[C@@H](O)[C@@H](CO)O[C@H]1C(=O)N(c1cc(Cl)cc(Cl)c1)[C@H]1CCCC[C@@H]1O` [Example 192, (2R,3R,4S,5R,6R)-N-(3,5-dichlorophenyl)-4-(4-(4-fluoronaphthalen-1-yl)-1H-1,2,3-triazol-1-yl)-5-hydroxy-N-((1S,2S)-2-hydroxycyclohexyl)-6-(hydroxymethyl)-3-methoxytetrahydro-2H-pyran-2-carboxamide], the figures for the IC50 on human Gal-3 (hGal-3) and on human Gal-1 (hGal-1) were 21 nM and 1140 nM, respectively.

As usually defined, the IC50 is the midpoint of a concentration-inhibition curve. High values mean a need for much substance, low ones inhibition by little substance.
